These results are taken from US20180235919A1, “System and Method For Treating Atheroma Formation” (Lonza Inc., priority 2015, published 2018).

A short description of data set [1]: Plasma L-carnitine concentration by LC-MS. Conditions: oral gavage once daily, ApoE KO/AAV-CETP mice (FIG. 3). The class given is in vivo, mouse. The procedure:
(§1) ApoE KO mice, male and 6 to 7 weeks of age, were transfected in vivo with AAV-CETP. Two weeks after infection, CETP expression in plasma was verified using a commercially available ELISA kit, and the mice were placed on a Western (high-fat) diet.
(§2) The mice were sorted into several groups based on matching initial total cholesterol and verified CETP expression: 1 control group receiving a dose of dH2O. 2—a group receiving a high dose of L-carnitine (35.2 mg/mL dH2O). 3—a group receiving a low dose of L-carnitine (8.7mg/mL dH2O). 4—a group receiving a high dose of L-carnitine (35.2 mg/mL dH2O) and a dose of methimazaole (1.5 mg/mL dH2O). 5—a group receiving a dose of methimazaole (1.5 mg/mL dH2O).
(§3) Dosing began when the mice reached 10 weeks of age and continued for 12 weeks. Drugs were administered once daily by oral gavage. The animals' body weights were measured weekly.
The concentrations of L-carnitine and TMAO in the plasma were measured using a liquid chromatography mass spectrometry method. A deuterium labeled L-carnitine stock standard was prepared using the weigh by difference technique. About 5 mg of d9-L-carnitine from Cambridge Isotope Laboratories were added to a 10 mL volumetric flask via a weighing funnel or weighing paper, and water:methanol=1:1 was used to dissolve the sample. A deuterium labeled TMAO stock standard was prepared by accurately weighing 25±2 mg of d9-trimethylamine N-oxide reference standard, transferring the sample into a 25 mL volumetric flask, adding about 15 mL of water:methanol=1:1, and vortexing until dissolved. The flask was then filled to volume with water:methanol=1:1
Stock standards of deuterium labeled L-carnitine and deuterium labeled TMAO were prepared using 5 mg/10 mL water/methanol of d9-L-carnitine and 25 mg/25 mL water/methanol of d9-TMAO. These stock standards were used to prepare an internal standard by adding 200 μL of d9-L-carnitine stock standard and 10 μL of d9-TMAO into a 50 mL volumetric flask, adding acetonitrile to volume, and mixing well.
Calibration standards were then prepared. […]

For data set [2], the system named is mouse model of atherosclerosis. Description: En face analysis of thoracic aorta lesions (Sudan IV staining). The class given is in vivo. The conditions noted are these: for amount of plaque present in the thoracic aorta (en face analysis): after 12 weeks of treatment, ApoE KO/AAV-CETP mice on Western diet (FIG. 5). The procedure: as §1, §2, §3
The effect of treatment with L-carnitine and/or methimazole on atherosclerosis progression was determined by measuring the amount of lesions present in the thoracic aorta and the sinotubular junction of the aortic root. After 12 weeks of treatment, the mice were sacrificed, and their tissues were removed for analysis. The En-face thoracic aortas were isolated and prepared for analysis by trimming present fat and fixing the aortas in formalin for 48-72 hours. For morphometric en face analysis, the aortas were laid out, pinned on black matrix, and stained with the lipid binding dye Sudan IV to determine the percentage of the thoracic aorta with lesion present. A Nikon computerized image analysis system was used to image the vessels for surface involvement.

Data set [3] relates to mouse model of atherosclerosis. Description: Plaque in the aortic root (aortic sinus sections, hematoxylin and eosin). Type of data set: in vivo. Conditions: after 12 weeks of treatment, ApoE KO/AAV-CETP mice on Western diet (FIG. 7). As for the experimental part: as §1, §2, §3
Data set [4] can be described thus: Plasma TMAO concentration by LC-MS. The class given is in vivo, mouse. Conditions: high dose of L-carnitine (352 mg/kg), oral gavage once daily, ApoE KO/AAV-CETP mice (FIG. 4). As for the experimental part:
as §1, §2, §3
The concentrations of L-carnitine and TMAO in the plasma were measured using a liquid chromatography mass spectrometry method. A deuterium labeled L-carnitine stock standard was prepared using the weigh by difference technique. About 5 mg of d9-L-carnitine from Cambridge Isotope Laboratories were added to a 10 mL volumetric flask via a weighing funnel or weighing paper, and water:methanol=1:1 was used to dissolve the sample. […]

For `Cn1cc[nH]c1=S` [methimazole], in data set [1] (methimazole (15 mg/kg)), the “concentration of L-carnitine in comparison to the control vehicle” value is “significant decrease”. In data set [2], the “amount of plaque present in the thoracic aorta (en face analysis)” value was “no significant changes”. Further, the “amount of plaque in the aortic root” value in data set [3] is “small but significant reductions”.

Regarding `C[N+](C)(C)[O-]` [TMAO, trimethylamine N-oxide], the “percent lesion area of the thoracic aorta” value in data set [2] (TMAO levels higher than 0.1 ppm versus TMAO levels lower than 0.1 ppm (FIG. 6)) is recorded as “significant decrease”.

Consider `C[N+](C)(C)C[C@H](O)CC(=O)[O-]` [L-carnitine], for which the “concentration of L-carnitine in the plasma compared to the control vehicle” value in data set [1] (high dose of L-carnitine (352 mg/kg)) and in data set [1] (low dose of L-carnitine (87 mg/kg)) was “significant increase” throughout. The “concentration of TMAO compared to the vehicle control” value in data set [4] is given as “statistically significant increase”. In data set [2], the “amount of plaque present in the thoracic aorta (en face analysis)” value was “no significant changes”. In addition, the “amount of plaque in the aortic root” value in data set [3] is listed as “small but significant reductions”.
